The assay has as its system Euglena gracilis Δ4-desaturase. Nature of the assay: Substrate specificity: feeding fatty acids to yeast expressing the Δ-4-desaturase (pYES-EGD4-2), fatty acid analysis by GC. The class given is cell-based. The settings on record: transformed yeast (saccharomyces strain SC334, pYES-EGD4-2), 100 μM fatty acid substrate (67 μM for 16:1 Δ7), 2% galactose induction, 15° C. for 4 days. As to the method: Yeasts transformed with the plasmid pYES-EGD4-2 as in Example 4 were analyzed in the following way:
The yeast cells were grown in 1 ml of minimal medium with 0.2% raffinose for two days and then transferred into 5 ml of the same medium. This culture was grown at 30° C. for 6 h until the OD600 was 0.05. Then 100 μM of the fatty acid substrates (67 μM for 16:1 Δ7) were added, and the expression of the Δ-4-desaturase was induced by adding 2% galactose. The cells were then incubated at 15° C. for 4 days, harvested, washed with 100 mM NaHCO3 and employed for the fatty acid analysis by GC.
The substrate specificities were found by feeding the transformed yeast strains with different fatty acids (Tab. 1). Conversion of the fed fatty acids to their Δ4-desaturated products was then determined.
For the molecule `CCCCC/C=C\C/C=C\CCCCCCCC(=O)O` [18:2 Δ9, 12], the “Conversion (in %) of the fed fatty acid to its Δ4-desaturated product” value is reported as “Not detectable”.
In the case of `CCCCCC/C=C\CCCCCCCC(=O)O` [16:1 Δ9], the “Conversion (in %) of the fed fatty acid to its Δ4-desaturated product” value was “Not detectable”.
Take `CCCCC/C=C\C/C=C\C/C=C\CCCCCCC(=O)O` [20:3 Δ8, 11, 14]: the “Conversion (in %) of the fed fatty acid to its Δ4-desaturated product” value is given as “Not detectable”.
Under `CCCCCCCC/C=C\CCCCCCCC(=O)O` [18:1 Δ9] stands “Not detectable”; under `CCCCCCCCC=CCCCCCC(=O)O` [16:1 Δ7], 7.4 (±0.8) %; under `CCCCC/C=C\C/C=C\C/C=C\C/C=C\CCCCCC(=O)O` [22:4 Δ7, 10, 13, 16], 28.7 (±2.5) %.
Under `CC/C=C\C/C=C\C/C=C\CCCCCC(=O)O` [16:3 Δ7, 10, 13] stands 21.4 (±3.3) %; under `CCCCCCCCCCCCCCCC(=O)O` [16:0], “Not detectable”.
As for `CC/C=C\C/C=C\C/C=C\C/C=C\C/C=C\CCCCCC(=O)O` [22:5 Δ7, 10, 13, 16, 19, docosapentaenoic acid], the figure is 29.7 (±2.8) %.
As for `CCCCCCCCCCCCCCCCCC(=O)O` [18:0], the “Conversion (in %) of the fed fatty acid to its Δ4-desaturated product” value was “Not detectable”.
As for `CCCCC/C=C\C/C=C\C/C=C\CCCCC(=O)O` [18:3 Δ6, 9, 12], the entry is “Not detectable”.

For the origin of these results see patent publication US7629503B2, “Δ-4 desaturases from Euglena gracilis, expressing plants, and oils containing PUFA” (BASF Plant Science GmbH, priority 2003, dated 2009).
